For two compounds, IC50 and Colony count results are on record in US20230076733A1, “Combination Therapy” (AGENCY FOR SCIENCE, TECHNOLOGY AND RESEARCH, priority 2020, published 2023).

The structures appear in SMILES notation. “And” between values parts separate entries of the source, which are not always exact repeats. Identical values can stand only once.

For one assay, the system named is MCAS cells. Kind of assay: soft agar colony formation assay, MCAS cells. Type of assay: cell-based. As to conditions: for IC50: MCAS cells, pre-determined by dose-response assay; for Colony count: MCAS, duplicate wells. On the procedure:
The IC50 and EC50 values for each combination partner (a) and (b) with the specific cell lines are determined from the response plot. A dose-response assay for each combination partner and the combination at different concentrations based on the IC50 values of each combination partner was performed. Computed EC50-EC95 values were then generated by a software (as disclosed herein) based on the drug concentration and the respective colony growth numbers.
6. Cell lines used and number of cells seeded per well
(1) Base Layer—0.6% Agar per 300 μL per well.
Microwave the agar for 1-2 min so that it is completely melted. Add 5.4 ml of the melted agar into 21.6 ml of pre-warmed media (All media and agar preparation is made in excess for 2.5 plates). Aliquot 300 μl of the suspension into each well, avoiding the first and last columns of the plates. Fill the first and last columns of wells with 500 μl of sterile water or phosphate buffered saline. Incubate the plates in 37° C. incubator for 45 min-1 hr to allow agar to solidify.
(2) Middle Layer— 0.3% Agar plus corresponding number of cells per well
Trypsinize the adherent cells and suspend them in 5 ml of media. Determine the number of cells in the suspension and calculate the volume of cell suspension required for seeding. Mix the agar and media together first, excluding the volume of cell suspension. Add the cell suspension last into the mixture. Mix well and aliquot 250 μl into each well containing the base layer. Incubate the plates in a 37° C. incubator for 1-1.5 hrs to allow the agar to solidify.
Prepare the required concentration of compounds based on the IC50 values of each drug.
(Pre-determine the IC50 values for each drug with the corresponding cell-line using a dose-response assay)
Row A& B: Aliquot 250 μl of diluted Drug A per well
Row C&D: Aliquot 250 μl of diluted Drug B per well
Row E& F: Aliquot 250 μl of diluted Drug A and B mixed at 1:1 ratio for each well
Assay Results Analysis Method • 1. Score the colonies after 2 to 3 weeks depending on the colony forming status for different cell line. • 2. Before scoring the colonies, add 35 μl MTT (5 mg/ml) to the wells with cells and incubate at 37° C. for 2-3 hrs depending on the intensity of colour development. • 3. Once the colonies are stained, count the total number of colonies formed using the Oxford Optronix GelCount® instrument. • 4. Average the total number of colonies obtained for each drug dose point and represent it as a fraction over the control. This represents the fraction of colony growth. […] Incorporate the fraction of inhibition and the corresponding dose values into the Chou Talalay Software available online (http://www.combosyn.com/) to obtain the combination index values. • 6.
MCAS is a cell line established from ovarian mucinous cystadenocarcinoma (ovarian cancer).

The subject of the next assay is PA-TU-8988T cells. Kind of assay: soft agar colony formation assay, PA-TU-8988T cells. The format is cell-based. As to conditions: for IC50: PA-TU-8988T cells, pre-determined by dose-response assay; for Colony count: PA-TU-8988T, duplicate wells. On the procedure:
The IC50 and EC50 values for each combination partner (a) and (b) with the specific cell lines are determined from the response plot. A dose-response assay for each combination partner and the combination at different concentrations based on the IC50 values of each combination partner was performed. Computed EC50-EC95 values were then generated by a software (as disclosed herein) based on the drug concentration and the respective colony growth numbers. 6. Cell lines used and number of cells seeded per well [table] (1) Base Layer—0.6% Agar per 300 μL per well. Microwave the agar for 1-2 min so that it is completely melted. Add 5.4 ml of the melted agar into 21.6 ml of pre-warmed media (All media and agar preparation is made in excess for 2.5 plates). Aliquot 300 μl of the suspension into each well, avoiding the first and last columns of the plates. Fill the first and last columns of wells with 500 μl of sterile water or phosphate buffered saline. Incubate the plates in 37° C. incubator for 45 min-1 hr to allow agar to solidify. (2) Middle Layer— 0.3% Agar plus corresponding number of cells per well Trypsinize the adherent cells and suspend them in 5 ml of media. Determine the number of cells in the suspension and calculate the volume of cell suspension required for seeding. Mix the agar and media together first, excluding the volume of cell suspension. Add the cell suspension last into the mixture. Mix well and aliquot 250 μl into each well containing the base layer. Incubate the plates in a 37° C. incubator for 1-1.5 hrs to allow the agar to solidify. […] Prepare the required concentration of compounds based on the IC50 values of each drug. (Pre-determine the IC50 values for each drug with the corresponding cell-line using a dose-response assay) Row A& B: Aliquot 250 μl of diluted Drug A per well Row C&D: Aliquot 250 μl of diluted Drug B per well Row E& F: Aliquot 250 μl of diluted Drug A and B mixed at 1:1 ratio for each well Assay Results Analysis Method • 1. Score the colonies after 2 to 3 weeks depending on the colony forming status for different cell line. • 2. Before scoring the colonies, add 35 μl MTT (5 mg/ml) to the wells with cells and incubate at 37° C. for 2-3 hrs depending on the intensity of colour development. • 3. Once the colonies are stained, count the total number of colonies formed using the Oxford Optronix GelCount® instrument. • 4. Average the total number of colonies obtained for each drug dose point and represent it as a fraction over the control. This represents the fraction of colony growth. […] Incorporate the fraction of inhibition and the corresponding dose values into the Chou Talalay Software available online (http://www.combosyn.com/) to obtain the combination index values. • 6. The combination index values will give an indication as to whether the combined drugs are synergistic, antagonistic or additive in the treated cells, as shown in Table 2 below. FIG. 12 illustrates a dose-response assay plate containing PA-TU-8988T cells (Test 1) after testing compounds at different concentrations based on the IC50 values of each compound. […] is a cell line established from pancreatic adenocarcinoma (pancreatic cancer).

[1] abbreviates: Test 1, 0.25x IC50: dose Olaparib 0.99475, Ex 1 0.07175, combination both 1:1.
Where [2] appears, read: Test 1, 0.5x IC50: dose Olaparib 1.9895, Ex 1 0.1435, combination both 1:1.
Where [3] appears, read: Test 1, 1x IC50: dose Olaparib 3.979, Ex 1 0.287, combination both 1:1.
Where [4] appears, read: Test 1, 2x IC50: dose Olaparib 7.958, Ex 1 0.574, combination both 1:1.
Setting [5] is: Test 1, 4x IC50: dose Olaparib 15.918, Ex 1 1.148, combination both 1:1.
The mark [6] stands for this setting: Test 2, 0.25x IC50: dose Olaparib 0.99475, Ex 1 0.07175, combination both 1:1.
The mark [7] stands for this setting: Test 2, 0.5x IC50: dose Olaparib 1.9895, Ex 1 0.1435, combination both 1:1.
Where [8] appears, read: Test 2, 1x IC50: dose Olaparib 3.979, Ex 1 0.287, combination both 1:1.
Where [9] appears, read: Test 2, 2x IC50: dose Olaparib 7.958, Ex 1 0.574, combination both 1:1.
Where [10] appears, read: Test 2, 4x IC50: dose Olaparib 15.916, Ex 1 1.148, combination both 1:1.
Setting [11] is: Test 1, 0.25x IC50: dose Olaparib 0.2525, Ex 1 0.275, combination both 1:1.
Setting [12] is: Test 1, 0.5x IC50: dose Olaparib 0.505, Ex 1 0.55, combination both 1:1.
The mark [13] stands for this setting: Test 1, 1x IC50: dose Olaparib 1.01, Ex 1 1.1, combination both 1:1.
Setting [14] is: Test 1, 2x IC50: dose Olaparib 2.02, Ex 1 2.2, combination both 1:1.
[15] abbreviates: Test 1, 4x IC50: dose Olaparib 4.04, Ex 1 4.4, combination both 1:1.
The mark [16] stands for this setting: Test 2, 0.25x IC50: dose Olaparib 0.2525, Ex 1 0.275, combination both 1:1.
Setting [17] is: Test 2, 0.5x IC50: dose Olaparib 0.505, Ex 1 0.55, combination both 1:1.
The mark [18] stands for this setting: Test 2, 1x IC50: dose Olaparib 1.01, Ex 1 1.1, combination both 1:1.
Where [19] appears, read: Test 2, 2x IC50: dose Olaparib 2.02, Ex 1 2.2, combination both 1:1.
[20] abbreviates: Test 2, 4x IC50: dose Olaparib 4.04, Ex 1 4.4, combination both 1:1.

Take `Cn1c(=O)c2c(ncn2CC(=O)Nc2ccc(-c3ccccc3)nn2)n(C)c1=O` [Ex 1, 2-(1,3-dimethyl-2,6-dioxo-2,3-dihydro-1H-purin-7 (6H)-yl)-N-(6-phenylpyridazin-3-yl)acetamide]: the IC50 with MCAS cells came out at 0.287 µM; in the assay with PA-TU-8988T cells it was 1.1 µM. Besides, the Colony count with MCAS cells (setting [1]) is 598 and 557; in the assay with MCAS cells (setting [2]) it was 462 and 445; in the assay on MCAS cells (setting [3]), 301 and 328; in the assay on MCAS cells (setting [4]), 252 and 273; with MCAS cells (setting [5]), 147 and 151; in the assay with MCAS cells (setting [6]), 976 and 921. For the same compound, the Colony count in the assay with MCAS cells (setting [7]) is 744 and 875; with MCAS cells (setting [8]), 694 and 706; in the assay on MCAS cells (setting [9]) it was 644 and 588; in the assay on MCAS cells (setting [10]) it was 419 and 326; in the assay on PA-TU-8988T cells (setting [11]) it was 420 and 494; in the assay with PA-TU-8988T cells (setting [12]), 343 and 488. Besides, the Colony count was 215 and 393 in the assay on PA-TU-8988T cells (setting [13]); 250 and 311 in the assay with PA-TU-8988T cells (setting [14]); 212 and 296 in the assay on PA-TU-8988T cells (setting [15]); 200 and 237 in the assay on PA-TU-8988T cells (setting [16]); 143 and 227 in the assay on PA-TU-8988T cells (setting [17]); 156 and 209 with PA-TU-8988T cells (setting [18]). For the same compound, the Colony count is 155 and 215 with PA-TU-8988T cells (setting [19]); 125 and 186 in the assay with PA-TU-8988T cells (setting [20]).
In the case of `O=C(c1cc(Cc2n[nH]c(=O)c3ccccc23)ccc1F)N1CCN(C(=O)C2CC2)CC1` [Olaparib, reference compound], the IC50 in the assay on MCAS cells is 3.98 µM; in the assay with PA-TU-8988T cells (Homo sapiens, PaTu 8988t) it was 1.01 µM. The Colony count in the assay with MCAS cells (setting [1]) is 429 and 425; in the assay with MCAS cells (setting [2]), 363 and 402; in the assay with MCAS cells (setting [3]), 273 and 227; in the assay on MCAS cells (setting [4]) it was 188 and 141; in the assay with MCAS cells (setting [5]) it was 112 and 97; in the assay on MCAS cells (setting [6]), 951 and 929. In addition, the Colony count in the assay with MCAS cells (setting [7]) was 741 and 668; in the assay with MCAS cells (setting [8]) it was 393 and 359; with MCAS cells (setting [9]), 155; in the assay on MCAS cells (setting [10]), 85 and 82; in the assay on PA-TU-8988T cells (setting [11]), 537 and 426; in the assay with PA-TU-8988T cells (setting [12]), 425 and 331. Besides, the Colony count is 398 and 327 with PA-TU-8988T cells (setting [13]); 411 and 325 in the assay with PA-TU-8988T cells (setting [14]); 362 and 307 in the assay on PA-TU-8988T cells (setting [15]); 222 and 170 in the assay on PA-TU-8988T cells (setting [16]); 180 and 155 in the assay on PA-TU-8988T cells (setting [17]); 146 and 150 in the assay with PA-TU-8988T cells (setting [18]). For the same compound, the Colony count was 136 and 143 in the assay with PA-TU-8988T cells (setting [19]); 180 and 125 with PA-TU-8988T cells (setting [20]).
